The text below walks through data of a melting point compilation (Tetko et al.; mined from patent text by program, amines drawn as free bases though some values may be those of a salt).

One may read the melting point as the temperature of the solid-liquid transition. `Cc1c(F)cc2[nH]c(=O)c(=O)[nH]c2c1[N+](=O)[O-]` registered a melting point of 308 to 311 °C.

`Cc1ccccc1-c1cc(O)ncc1C(=O)N(C)Cc1cc(C(F)(F)F)cc(C(F)(F)F)c1` came in with a melting point of 91 to 93 °C.

`CC(C)NC(C)Cc1ccc(O)cn1` (stereo unspecified): the melting point was 135 to 138 °C.

As to `COC(=O)Cc1c(F)cccc1Cl`, the melting point lay within 79 to 80 °C.

`C#CC[C@H](c1nc2cc(Cl)ccc2c(=O)n1Nc1ccccc1)N(CCCN)C(=O)c1ccc(C)c(F)c1F` gave a melting point of 175 to 180 °C.

In turn, `Nc1c(Cl)cc(C(F)(F)F)c(Cl)c1Cl` gave a melting point of 37 to 39 °C.

`COC1=C(OC)C(=O)C(CCCCCCCCCCOC(C)=O)=C(C)C1=O`: the melting point amounted to 38 °C.

`COc1cccc(C(C)CC(=O)Nc2sc3c(c2C#N)CCNC3)c1` (racemic) returned a melting point of 197 to 200 °C.

In the case of `CCCCOC(=O)C(CCc1ccccc1)NC1CSC(c2ccsc2)CN(CC(=O)O)C1=O` (stereo unspecified), the melting point came out at 156 °C.

Compound `COC(=O)COc1ccc(NC(=O)c2cc(C(C)C)c(C(C)C)o2)cc1` had a melting point of 104 to 105 °C.

Compound `COc1ccccc1C1=C(C#N)C(c2ccccc2[N+](=O)[O-])c2c[nH]nc2N1` (stereo unspecified) had a melting point of 207 °C.

In the case of `Cc1cccc(NC(=O)NCC(=O)N(CC(=O)OC(C)(C)C)c2cccc(C(F)(F)F)c2)c1`, the melting point came out at 140 °C.

Compound `Cc1oc(-c2ccc(F)cc2)nc1CCOc1ccc(CN(O)C(N)=O)cc1` came in with a melting point of 158 to 160 °C.

For the compound `COc1ccc(C(O)C=Cc2ccc(N(C)C)cc2)cc1` (stereo unspecified), the melting point was 137 to 148 °C.

Compound `ClC(=NNc1cc(Cl)ccc1Cl)c1ccccc1` registered a melting point of 84.5 to 86 °C.

Turning to `CCCCNC(=O)[C@@H](C[C@H](O)[C@H](CC1CCCCC1)N=[N+]=[N-])C(C)C`, the melting point turned out to be 100 °C.

As for `COc1cc2c(cc1Nc1ncc(Cl)c(N[C@@H]3CCCC[C@H]3NS(C)(=O)=O)n1)CCN(CC(F)(F)F)CC2`, the melting point lay in the range of 103 to 110 °C.

The compound `CCCS(=O)(=O)Cc1cccc(-c2nc(=O)c3ccccc3s2)n1` showed a melting point of 177 to 179 °C.

With `O=C(O)COc1ccc(-c2noc3ccccc23)c(Cl)c1Cl`, the melting point lay in the range of 166 to 167 °C.

`CC(=O)NNC(=S)N1N=C(c2ccc([N+](=O)[O-])cc2)c2cc3c(cc2CC1C)OCO3` (stereo unspecified) registered a melting point of 118 °C.

Regarding `COc1cccc2c1C(=O)NS2(=O)=O`, the melting point is 224 °C.

In turn, `C[C@H](O)c1ccccc1S(=O)(=O)c1ccc(/C=C/c2ccc(F)cc2)cc1` yielded a melting point of 75 °C.

For the compound `Fc1ccc2c(-c3ccncc3)noc2c1`, the melting point fell in the range of 138 to 146 °C.

Turning to `CNc1cc(NS(=O)(=O)c2ccc(C(C)(C)C)cc2)nc(NC)n1`, the melting point is 316 to 318 °C.

The compound `C=CCOc1ccc2cc(O)ccc2c1` had a melting point of 92 to 93 °C.

On to `CC(C)c1cc(C(=O)O)cc(C(C)C)c1O`, for which the melting point turned out to be 147 °C.

The compound `Cc1nccc(CO)c1OCc1ccccc1` returned a melting point of 130 to 131 °C.

For the compound `c1cc2nnnn2cc1C1CO1` (stereo unspecified), the melting point fell in the range of 108 to 110 °C.

For `COc1ccccc1-n1c(=O)[nH]c2c(C(N)=O)nc(N[C@H]3CC[C@H](O)CC3)nc21`, the melting point is 165 to 167 °C.

In turn, `C[C@@H]1CCC[C@H](C)N1CCNC(=O)CN1C(=O)CCC1(C)C` registered a melting point of 94 to 94.5 °C.

For `COc1ccc2sc(=O)n(C(C)=O)c2c1`, the melting point lay in the range of 112 to 113 °C.

Compound `CCOC(=O)C1=C(S(=O)(=O)Cl)CCCC1` yielded a melting point of 31.5 to 32.5 °C.

As to `CCOC(=O)c1cc(=O)c2c(OCC(O)COc3cccc(O)c3C(=O)C=CN(C)C)cccc2o1` (stereo unspecified), the melting point fell in the range of 159 to 165 °C.

As to `COc1ccc2c(c1)CCC1=C2CCC2(C)C(=O)CCC12` (stereo unspecified), the melting point was 110 to 120 °C.

In turn, `COc1ccc2c(c1)C(C(=O)N(Cc1ccc(OCC(F)(F)F)cc1)c1ccc(C(C)C)cc1)CCC2` (stereo unspecified) displayed a melting point of 125 to 127 °C.

In turn, `Cc1cc2c(cc1CSCC(=O)O)OCO2` came in with a melting point of 90 to 92 °C.

Regarding `CC(C)c1c(C(=O)Nc2ccccc2)c(-c2ccccc2)c(-c2ccc(F)cc2)n1CC[C@H]1C[C@H](O)CC(=O)O1` (relative stereo), the melting point fell in the range of 90 to 97 °C.

In turn, `CCc1ccc(CC)n1Nc1ccc(N2CCOCC2)nn1` registered a melting point of 186 to 189 °C.

Take `O=C(O)COc1cccnc1-c1ccc(Cl)c(C(=O)NCC23CC4CC(CC(C4)C2)C3)c1`: the melting point was 133 to 137 °C.

In the case of `Cc1nc(N2N=C(c3ccc([N+](=O)[O-])cc3)c3cc4c(cc3CC2C)OCO4)cs1` (stereo unspecified), the melting point fell in the range of 178 to 190 °C.

Regarding `Sc1ncc(-c2ccccc2)s1`, the melting point fell in the range of 207 to 209 °C.

`CCCCOc1c(CNC(=O)OC(C)(C)C)n(CC(C)C)c(=O)c2ccc(-n3ccnn3)cc12` registered a melting point of 190 to 191 °C.

`Cc1ccc2oc(NC(CC3CCCCC3)c3ccccn3)nc2c1` (stereo unspecified) had a melting point of 80 to 86 °C.

`COc1cc(C(=O)C(F)(F)F)ccc1OCCCN1CCC(c2noc3cc(F)ccc23)CC1` returned a melting point of 78 to 80 °C.

In turn, `CC(C)(C)P1(=O)c2ccccc2CN1c1ccccc1` (stereo unspecified) displayed a melting point of 171 to 172 °C.

In turn, `CC1(C)OC(c2ccc(Cl)cc2Cl)C(Cn2cncn2)(c2ccc(Cl)cc2)O1` (stereo unspecified) yielded a melting point of 141 to 142 °C.

For `Fc1cc(Cl)cc2cc(-c3ccccc3)[nH]c12`, the melting point is 153 to 155 °C.

As for `Cc1cc(C)c2c(=O)c([N+](=O)[O-])coc2c1`, the melting point is 120 to 125 °C.

Compound `CC(=O)C(=NNc1ccc(Oc2ccccc2)cc1)Sc1ccc(Cl)cc1` yielded a melting point of 152 to 155 °C.

`CCC(=O)N(Cc1ccc(OC(F)(F)F)cc1)c1cc(Cl)cc(-c2nnn[nH]2)c1` showed a melting point of 144 °C.

In the case of `CC(C)(C)OC(=O)N(Cc1ccc(C(=O)NCC(=N)NO)cc1)c1ccc(C(C)(C)C)cc1`, the melting point is 154 to 156 °C.

With `Cc1cc(-n2ccnc2)c2cccc(OCc3c(Cl)ccc(N(C)C(=O)CN4C(=O)c5ccccc5C4=O)c3Cl)c2n1`, the melting point fell in the range of 200 to 203 °C.

`COc1cc(Nc2c(C#N)cnc3cc(-c4cccc([N+](=O)[O-])c4)ccc23)c(Cl)cc1Cl` registered a melting point of 287 to 288 °C.

On to `Cc1ccnc(C=Cc2ccccc2)n1`, for which the melting point was 65 to 67 °C.

The compound `CCOC(=O)CNC(=S)NC(=Nc1ccccc1)c1ccccc1` came in with a melting point of 151 to 152 °C.

`COC(=O)c1ccc(C)c(-n2c(C)cc(OCc3ccc(F)cc3CNC(=O)Nc3cc(C(C)(C)C)nn3-c3ccc(O)c(Cl)c3)c(Cl)c2=O)c1`: the melting point lay in the range of 197 to 200 °C.

On to `N#Cc1ccc(N2CCC(CCO)CC2)c2ccccc12`, for which the melting point lay in the range of 128 to 129 °C.

`COc1c(NC(=O)Nc2ccc(-c3ccc(CN4CCOCC4)nc3)c3ccccc23)cc(C(C)(C)C)cc1Nc1c(N(C)C)c(=O)c1=O`: the melting point fell in the range of 176 to 179 °C.

As for `Cc1cc(O)c([N+](=O)[O-])c(=O)n1CC(=O)O`, the melting point was 205 °C.

For the compound `CCCCc1sc2ccccc2c1-c1ccc(-c2ccc(OC(C(=O)O)c3ccccc3)cc2)cc1` (stereo unspecified), the melting point was in the range of 157 to 159 °C.

Turning to `CCOC(=O)C(Cc1ccc(OCCN2COc3ccccc3C2=O)cc1)OCC` (stereo unspecified), the melting point lay within 76 to 78 °C.
